# How the values were obtained:
# [1] = system: Pyricularia oryzae (rice blast); assay: whole plant or invertebrate; assay type: in vivo; details: Pyricularia oryzae, foliar, read-out: PYRIOR disease control, host rice; foliar spray; 400 ppm (+++: 100 ppm)
# [2] = system: Erysiphe graminis tritici (powdery mildew); assay: Foliar spray fungicide test, Erysiphe graminis tritici (powdery mildew) on wheat; details: Blumeria graminis, in Triticum aestivum, foliar, read-out: ERYSGT disease control, host wheat, 400 ppm (+++: 100 ppm)
# [3] = system: Leptosphaeria nodorum (glume blotch); assay: Foliar spray fungicide test, Leptosphaeria nodorum (glume blotch) on wheat; details: Parastagonospora nodorum, in Triticum aestivum, foliar, read-out: LETPNO disease control, host wheat, 400 ppm (+++: 100 ppm)
# Description: (§1) The test compounds were formulated for application by dissolving 50 mg of the compound into 1.25 ml of solvent. The solvent was prepared by mixing 50 ml of "Tween 20" (polyoxyethylene (20) sorbitan monolaurate emulsifier) with 475 ml of acetone and 475 ml of ethanol. The solvent/compound solution was diluted to 125 ml with deionized water. The resulting formulation contains 400 ppm test chemical. Lower concentrations were obtained by serial dilution with the solvent-surfactant mixture.
# The formulated test compounds were applied by foliar spray.
# (§2) The formulated technical compounds were sprayed on all foliar surfaces of the host plants to past run-off. Single pots of each host plant were placed on raised, revolving pedestals in a fume hood. Test solutions were sprayed on all foliar surfaces. All treatments were allowed to dry and the plants were inoculated with the appropriate pathogens within 24 hours.
# (§3) The effectiveness of test compounds in controlling disease was rated using the following scale.
# [4] = system: Puccinia recondita tritici (leaf rust); assay: Foliar spray fungicide test, Puccinia recondita tritici (leaf rust) on wheat; details: Puccinia recondita, in Triticum aestivum, foliar, read-out: PUCCRT disease control, host wheat, 400 ppm (+++: 100 ppm)
# Description: as §1
# The formulated test compounds were applied by foliar spray. The following plant pathogens and their corresponding plants were employed.
# Puccinia recondita PUCCRT wheat
# as §2, §3
# [5] = system: Plasmopara viticola (downy mildew); assay: Foliar spray fungicide test, Plasmopara viticola (downy mildew) on grape; details: for pest or weed control at 400 µg/mL: Plasmopara viticola, foliar, read-out: PLASVI disease control
smiles,measurement,setting,value
O=[N+]([O-])c1cccnc1Oc1ccc(CCOc2ncnc3cccc(F)c23)cc1 [Compound 9],pest or weed control at 400 µg/mL,[1],0 to 19%
same,pest or weed control at 400 µg/mL,[2],0 to 19%
same,pest or weed control at 400 µg/mL,[3],0 to 19%
same,pest or weed control at 400 µg/mL,[4],0 to 19%
same,pest or weed control at 400 µg/mL,[5],90 to 100%
Fc1cccc2c(OCCc3ccc(Oc4cccc(OCC(F)(F)F)n4)cc3)ncnc12 [Compound 33],pest or weed control at 400 µg/mL,[1],20 to 89%
same,pest or weed control at 400 µg/mL,[2],90 to 100%
same,pest or weed control at 400 µg/mL,[3],0 to 19%
same,pest or weed control at 400 µg/mL,[4],90 to 100%
same,pest or weed control at 400 µg/mL,[5],90 to 100%
Clc1ccc(Oc2ccc(CCOc3ncnc4ccccc34)cc2)nn1 [Compound 49],pest or weed control at 400 µg/mL,[1],0 to 19%
same,pest or weed control at 400 µg/mL,[2],20 to 89%
same,pest or weed control at 400 µg/mL,[3],0 to 19%
same,pest or weed control at 400 µg/mL,[4],20 to 89%
same,pest or weed control at 400 µg/mL,[5],90 to 100%
Clc1cnc(Oc2ccc(CCOc3ncnc4ccccc34)cc2)nc1 [Compound 47],pest or weed control at 400 µg/mL,[1],20 to 89%
same,pest or weed control at 400 µg/mL,[2],90 to 100%
same,pest or weed control at 400 µg/mL,[3],0 to 19%
same,pest or weed control at 400 µg/mL,[5],20 to 89%
N#Cc1cccnc1Oc1ccc(CCOc2ncnc3cccc(F)c23)cc1 [Compound 4],pest or weed control at 400 µg/mL,[1],0 to 19%
same,pest or weed control at 400 µg/mL,[2],20 to 89%
same,pest or weed control at 400 µg/mL,[3],0 to 19%
same,pest or weed control at 400 µg/mL,[4],0 to 19%
same,pest or weed control at 400 µg/mL,[5],20 to 89%
Fc1cccc2c(NCCc3ccc(Oc4cc(C(F)(F)F)ccn4)cc3)ncnc12 [Compound 14],pest or weed control at 400 µg/mL,[1],90 to 100%
same,pest or weed control at 400 µg/mL,[2],90 to 100%
same,pest or weed control at 400 µg/mL,[3],20 to 89%
same,pest or weed control at 400 µg/mL,[4],90 to 100%
same,pest or weed control at 400 µg/mL,[5],90 to 100%
"Fc1cccc2c(NCCc3ccc(Oc4cccc(C(F)(F)F)n4)cc3)ccnc12 [Compound 40, 8-Fluoro-4-(2-(4-(6-(trifluoromethyl)-2-pyridinyloxy)phenyl)ethylamino)quinoline]",pest or weed control at 400 µg/mL,[1],20 to 89%
same,pest or weed control at 400 µg/mL,[2],90 to 100%
same,pest or weed control at 400 µg/mL,[3],20 to 89%
same,pest or weed control at 400 µg/mL,[4],90 to 100%
same,pest or weed control at 400 µg/mL,[5],90 to 100%
Fc1cccc2c(NCCc3ccc(Oc4cccc(C(F)(F)F)n4)cc3)ncnc12 [Compound 37],pest or weed control at 400 µg/mL,[1],20 to 89%
same,pest or weed control at 400 µg/mL,[2],90 to 100%
same,pest or weed control at 400 µg/mL,[3],90 to 100%
same,pest or weed control at 400 µg/mL,[4],90 to 100%
same,pest or weed control at 400 µg/mL,[5],90 to 100%
Fc1cccc2c(NCCc3ccc(Oc4ncccc4C(F)(F)F)cc3)ncnc12 [Compound 11],pest or weed control at 400 µg/mL,[1],90 to 100%
same,pest or weed control at 400 µg/mL,[2],90 to 100%
same,pest or weed control at 400 µg/mL,[3],90 to 100%
same,pest or weed control at 400 µg/mL,[4],90 to 100%
same,PLASVI disease control,"[5]; host grape, foliar spray, 400 ppm (+++: 100 ppm)",+ ++
FC(F)(F)c1ccc(Oc2ccc(CCOc3ncnc4ncccc34)cc2)nc1 [Compound 30],pest or weed control at 400 µg/mL,[1],90 to 100%
same,pest or weed control at 400 µg/mL,[2],90 to 100%
same,pest or weed control at 400 µg/mL,[3],0 to 19%
same,pest or weed control at 400 µg/mL,[4],90 to 100%
same,pest or weed control at 400 µg/mL,[5],90 to 100%
Brc1cnc(Oc2ccc(CCOc3ncnc4ccccc34)cc2)nc1 [Compound 46],pest or weed control at 400 µg/mL,[1],0 to 19%
same,pest or weed control at 400 µg/mL,[2],20 to 89%
same,pest or weed control at 400 µg/mL,[3],20 to 89%
same,pest or weed control at 400 µg/mL,[4],20 to 89%
same,pest or weed control at 400 µg/mL,[5],0 to 19%
FC(F)(F)c1ccc(Oc2ccc(CCNc3ncnc4cccnc34)cc2)nc1 [Compound 32],pest or weed control at 400 µg/mL,[1],90 to 100%
same,pest or weed control at 400 µg/mL,[2],90 to 100%
same,pest or weed control at 400 µg/mL,[3],90 to 100%
same,pest or weed control at 400 µg/mL,[4],90 to 100%
same,pest or weed control at 400 µg/mL,[5],90 to 100%

# — patent US5326766A, “4-(2-(4-(2-pyridinyloxy)phenyl)ethoxy)quinazoline and analogues thereof” (priority 1992, dated 1994)
